Experimental findings from the supplement of paper PMC11208160 are described below.

This data set is described as follows: recombinant barcode read abundance after kanamycin selection (control-corrected) (log10(CPM+1)); higher = more efficient recombination; sequences stand for … in AGTGCAGAGAAAATCGGCCAGTTTTCTCTGCCTGCAGTCCGCATGCCGT…ATTTATGCAGCGGACTGCCTTTCTCCCAAAGTGATAAACCGGACAGTATCATGGACCGGTTTTCCCGGTAATCCGTATTTGCAAGGTTGGTTTCACT; site = the 11-nt target. The essentials: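 Duplicate cultures were plated either on chloramphenicol/ampicillin LB agar, serving as control, or on chloramphenicol/ampicillin/kanamycin with 0.1 mM IPTG. These came from a pooled E. coli library co-electroporated with a donor plasmid, each member pairing a target with an IS621 bridge RNA target-binding loop. Recombination efficiency equals averaged, control-corrected counts per million of recombinant-junction barcodes. It is listed as log10(CPM+1).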
Turning to “GGCTCCCAGTGGGTTCTAACCTGTTGCGGAG [GGCTCCCCTCC_LTGcore_AG_RTGcore_CT] (site GGCTCCCCTCC) (LTG core: AG, RTG core: CT)”, the “recombinant barcode read abundance (log10)” value came out at 0.156.

In the case of “GGCTCCCCTTGGGTTCTAACCTGTTGCGGAA [GGCTCCCCTCC_LTGcore_CT_RTGcore_TT] (site GGCTCCCCTCC) (LTG core: CT, RTG core: TT)”, the “recombinant barcode read abundance (log10)” value turned out to be 0.164.

Consider “GGCTCCCCTTGGGTTCTAACCTGTTGCGGCT [GGCTCCCCTCC_LTGcore_CT_RTGcore_AG] (site GGCTCCCCTCC) (LTG core: CT, RTG core: AG)”, for which the “recombinant barcode read abundance (log10)” value is 0.0367.

In the case of “GGCTCCCGATGGGTTCTAACCTGTTGCGGAG [GGCTCCCCTCC_LTGcore_GA_RTGcore_CT] (site GGCTCCCCTCC) (LTG core: GA, RTG core: CT)”, the “recombinant barcode read abundance (log10)” value was determined as 0.104.

With “GGCTCCCGATGGGTTCTAACCTGTTGCGGTC [GGCTCCCCTCC_LTGcore_GA_RTGcore_GA] (site GGCTCCCCTCC) (LTG core: GA, RTG core: GA)”, the “recombinant barcode read abundance (log10)” value was determined as 0.109.

Turning to “GGCTCCCTATGGGTTCTAACCTGTTGCGGTA [GGCTCCCCTCC_LTGcore_TA_RTGcore_TA] (site GGCTCCCCTCC) (LTG core: TA, RTG core: TA)”, the “recombinant barcode read abundance (log10)” value came to 0.201.

Regarding “GGCTCCCTCTGGGTTCTAACCTGTTGCGGAG [GGCTCCCCTCC_LTGcore_TC_RTGcore_CT] (site GGCTCCCCTCC) (LTG core: TC, RTG core: CT)”, the “recombinant barcode read abundance (log10)” value was found to be 0.172.

In the case of “GGGAGCCATTGGGTTCTAACCTGTTGCTGAG [GGGAGCCCTCA_LTGcore_AT_RTGcore_CT] (site GGGAGCCCTCA) (LTG core: AT, RTG core: CT)”, the “recombinant barcode read abundance (log10)” value worked out at 0.526.

For “GGGAGCCCGTGGGTTCTAACCTGTTGCTGAG [GGGAGCCCTCA_LTGcore_CG_RTGcore_CT] (site GGGAGCCCTCA) (LTG core: CG, RTG core: CT)”, the “recombinant barcode read abundance (log10)” value came to 0.27.

Take “GGGAGCCCTTGGGTTCTAACCTGTTGCTGAG [GGGAGCCCTCA_LTGcore_CT_RTGcore_CT] (site GGGAGCCCTCA) (LTG core: CT, RTG core: CT)”: the “recombinant barcode read abundance (log10)” value turned out to be 1.87.

For “GGGAGCCCTTGGGTTCTAACCTGTTGCTGCT [GGGAGCCCTCA_LTGcore_CT_RTGcore_AG] (site GGGAGCCCTCA) (LTG core: CT, RTG core: AG)”, the “recombinant barcode read abundance (log10)” value amounted to 0.652.

With “GGGAGCCCTTGGGTTCTAACCTGTTGCTGGC [GGGAGCCCTCA_LTGcore_CT_RTGcore_GC] (site GGGAGCCCTCA) (LTG core: CT, RTG core: GC)”, the “recombinant barcode read abundance (log10)” value worked out at 0.0756.

In the case of “GGGAGCCCTTGGGTTCTAACCTGTTGCTGGG [GGGAGCCCTCA_LTGcore_CT_RTGcore_CC] (site GGGAGCCCTCA) (LTG core: CT, RTG core: CC)”, the “recombinant barcode read abundance (log10)” value worked out at 0.111.

With “GGGAGCCCTTGGGTTCTAACCTGTTGCTGGT [GGGAGCCCTCA_LTGcore_CT_RTGcore_AC] (site GGGAGCCCTCA) (LTG core: CT, RTG core: AC)”, the “recombinant barcode read abundance (log10)” value amounted to 0.208.

For “GGGAGCCGATGGGTTCTAACCTGTTGCTGTC [GGGAGCCCTCA_LTGcore_GA_RTGcore_GA] (site GGGAGCCCTCA) (LTG core: GA, RTG core: GA)”, the “recombinant barcode read abundance (log10)” value amounted to 0.0745.

As to “GGGAGCCTGTGGGTTCTAACCTGTTGCTGAG [GGGAGCCCTCA_LTGcore_TG_RTGcore_CT] (site GGGAGCCCTCA) (LTG core: TG, RTG core: CT)”, the “recombinant barcode read abundance (log10)” value worked out at 0.259.

With “GGGAGCCTGTGGGTTCTAACCTGTTGCTGCA [GGGAGCCCTCA_LTGcore_TG_RTGcore_TG] (site GGGAGCCCTCA) (LTG core: TG, RTG core: TG)”, the “recombinant barcode read abundance (log10)” value worked out at 0.285.

On to “GGGCGGAACTGGGTTCTAACCTGTTGCGGGT [GGGCGGACTCC_LTGcore_AC_RTGcore_AC] (site GGGCGGACTCC) (LTG core: AC, RTG core: AC)”, for which the “recombinant barcode read abundance (log10)” value is 0.3.

On to “GGGCGGAATTGGGTTCTAACCTGTTGCGGAG [GGGCGGACTCC_LTGcore_AT_RTGcore_CT] (site GGGCGGACTCC) (LTG core: AT, RTG core: CT)”, for which the “recombinant barcode read abundance (log10)” value was found to be 0.637.

For “GGGCGGACCTGGGTTCTAACCTGTTGCGGAG [GGGCGGACTCC_LTGcore_CC_RTGcore_CT] (site GGGCGGACTCC) (LTG core: CC, RTG core: CT)”, the “recombinant barcode read abundance (log10)” value worked out at 1.4.

For the sequence “GGGCGGACTTGGGTTCTAACCTGTTGCGGAC [GGGCGGACTCC_LTGcore_CT_RTGcore_GT] (site GGGCGGACTCC) (LTG core: CT, RTG core: GT)”, the “recombinant barcode read abundance (log10)” value was found to be 0.135.

Take “GGGCGGACTTGGGTTCTAACCTGTTGCGGGA [GGGCGGACTCC_LTGcore_CT_RTGcore_TC] (site GGGCGGACTCC) (LTG core: CT, RTG core: TC)”: the “recombinant barcode read abundance (log10)” value was 1.29.

On to “GGGCGGACTTGGGTTCTAACCTGTTGCGGTC [GGGCGGACTCC_LTGcore_CT_RTGcore_GA] (site GGGCGGACTCC) (LTG core: CT, RTG core: GA)”, for which the “recombinant barcode read abundance (log10)” value came out at 0.104.

For the sequence “GGGCGTGCATGGGTTCTAACCTGTTGCCTAG [GGGCGTGCTAG_LTGcore_CA_RTGcore_CT] (site GGGCGTGCTAG) (LTG core: CA, RTG core: CT)”, the “recombinant barcode read abundance (log10)” value was 0.233.

As to “GGGCGTGCCTGGGTTCTAACCTGTTGCCTAG [GGGCGTGCTAG_LTGcore_CC_RTGcore_CT] (site GGGCGTGCTAG) (LTG core: CC, RTG core: CT)”, the “recombinant barcode read abundance (log10)” value worked out at 0.255.

On to “GGGCGTGCTTGGGTTCTAACCTGTTGCCTCG [GGGCGTGCTAG_LTGcore_CT_RTGcore_CG] (site GGGCGTGCTAG) (LTG core: CT, RTG core: CG)”, for which the “recombinant barcode read abundance (log10)” value turned out to be 0.166.

Take “GGGCGTGCTTGGGTTCTAACCTGTTGCCTTA [GGGCGTGCTAG_LTGcore_CT_RTGcore_TA] (site GGGCGTGCTAG) (LTG core: CT, RTG core: TA)”: the “recombinant barcode read abundance (log10)” value worked out at 0.139.

As to “GGGCGTGGATGGGTTCTAACCTGTTGCCTAG [GGGCGTGCTAG_LTGcore_GA_RTGcore_CT] (site GGGCGTGCTAG) (LTG core: GA, RTG core: CT)”, the “recombinant barcode read abundance (log10)” value was determined as 0.0898.

For “GGGCGTGGCTGGGTTCTAACCTGTTGCCTAG [GGGCGTGCTAG_LTGcore_GC_RTGcore_CT] (site GGGCGTGCTAG) (LTG core: GC, RTG core: CT)”, the “recombinant barcode read abundance (log10)” value came to 0.276.

Consider “GGGCGTGTTTGGGTTCTAACCTGTTGCCTAG [GGGCGTGCTAG_LTGcore_TT_RTGcore_CT] (site GGGCGTGCTAG) (LTG core: TT, RTG core: CT)”, for which the “recombinant barcode read abundance (log10)” value was determined as 0.0908.

On to “GGTGCCCAATGGGTTCTAACCTGTTGCCGAG [GGTGCCCCTCG_LTGcore_AA_RTGcore_CT] (site GGTGCCCCTCG) (LTG core: AA, RTG core: CT)”, for which the “recombinant barcode read abundance (log10)” value stood at 0.135.

Consider “GGTGCCCACTGGGTTCTAACCTGTTGCCGGT [GGTGCCCCTCG_LTGcore_AC_RTGcore_AC] (site GGTGCCCCTCG) (LTG core: AC, RTG core: AC)”, for which the “recombinant barcode read abundance (log10)” value stood at 0.066.
